Source: PubChem BioAssay (NCI)
Several values for one entry are separate records, joined by “and”; a condition that tells them apart may be missing. Equal values may be shown once.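 Following 48 hours of exposure in 96-well plates, responses at five concentrations were used to interpolate endpoints linearly. Here, GI50 denotes the concentration required for 50% inhibition of growth. The concentration for full growth arrest is given as TGI.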

Key:
Assay in all cases: inhibition of tumour cell growth, NCI panel, 48 h
K-562 leukemia = system: K-562 leukemia
SW-620 colon = system: SW-620 colon
NCI-H23 lung = system: NCI-H23 lung
HCT-116 colon = system: HCT-116 colon
SF-295 CNS = system: SF-295 CNS
OVCAR-5 ovarian = system: OVCAR-5 ovarian
NCI-H226 lung = system: NCI-H226 lung
A498 renal = system: A498 renal

| Compound | TGI (K-562 leukemia) [µM] | TGI (SW-620 colon) [µM] | TGI (NCI-H23 lung) [µM] | TGI (HCT-116 colon) [µM] | TGI (SF-295 CNS) [µM] | TGI (OVCAR-5 ovarian) [µM] | TGI (NCI-H226 lung) [µM] | TGI (A498 renal) [µM] | GI50 (K-562 leukemia) | GI50 (SW-620 colon) [µM] | GI50 (NCI-H23 lung) [µM] | GI50 (HCT-116 colon) | GI50 (SF-295 CNS) [µM] | GI50 (OVCAR-5 ovarian) [µM] | GI50 (NCI-H226 lung) | GI50 (A498 renal) [µM] |
| --- | --- | --- | --- | --- | --- | --- | --- | --- | --- | --- | --- | --- | --- | --- | --- | --- |
| Nc1nc(-c2cccnc2)cc(-c2cc(-c3cccnc3)nc(N)n2)n1 | > 100 | > 100 | > 100 | > 100 | > 100 | > 100 | > 100 | > 100 |  |  |  |  |  |  |  |  |
| CCOc1ccc(-c2nc3ccc(-c4nc5ccc(N6CCN(C)CC6)cc5[nH]4)cc3[nH]2)cc1 |  | 1.17 | 1.44 | 0.26 | 2.63 | 3.07 | 2.25 | 1.05 | 0.696 µM | 0.234 | 0.288 | 0.0397 µM | 0.518 | 1.47 | 0.648 µM | 0.223 |
| Cc1cc(-c2nc3sc(C)cn3c2/C=N/N=C(N)N)c(C)s1 | > 100 | 18.4 | 28.2 | 3.37 | 3.85 | 28.1 | 40.8 |  | > 100 µM | 3.33 | 14.6 | 1.79 µM | 1.78 | 13.2 | 20.8 µM |  |
| Nc1nc(Sc2ccc([N+](=O)[O-])c3nonc23)c2ncn(C3OC(CO)C(O)C3O)c2n1 (stereo not drawn) | > 90.5 | > 35 | 13.9 | 13.6 | > 100 | 13.1 | 29 | 14 | 0.279 µM | 1.12 | 1.34 | 0.428 µM | 1.95 | 1.07 | 2.2 µM | 2.28 |
| COc1cc2c3c(n(CCCN=[N+]=[N-])c(=O)c2cc1OC)-c1ccccc1C3=O | > 100 | > 100 | 21.8 | 17.8 | 9.86 |  |  |  | 3.48 µM | 12 | 3.23 | 1.81 µM | 2.87 |  |  |  |
| COc1cccc(S(=O)(=O)NC2=NCCN2C(=S)SN2CCn3c2nsc3=S)c1 | 92.3 | > 100 |  | 33 | > 100 | 79.4 | > 100 | > 100 | 31.4 µM | 34 |  | 16.4 µM | > 100 | 23 | 30.9 µM | 68.4 |
| NC(=O)c1cn(C2CC(O)C(CO)O2)c2ncnc(N)c12 (stereo not drawn) | > 100 | 20.6 | 18.8 | > 100 | > 76.6 | > 71.6 | 17.4 | 7.93 | 4.21 µM | 2.58 | 2.5 | 4.1 µM | 12.6 | 9.81 | 3.19 µM | 1.97 |
| O=S(O)O.O=S(O)O.[Co].[NH2-].[NH2-].[NH2-].[NH2-] | > 100 | > 100 | > 100 | > 100 | > 100 | > 100 | > 100 | > 100 | > 100 µM | > 100 | > 100 | > 100 µM | > 100 | > 100 | > 100 µM | > 100 |
| CCOC(=O)c1c(NN2CCN(CC(F)(F)F)CC2)oc(/C=C2\C=Nc3ncccc32)c1O | > 100 | 22.9 | 21.7 | 17.7 | 37.4 | 67.5 | 27 | 9.62 | 2.14 µM | 0.808 | 7 | 2.09 µM | 8.47 | 19.3 | 1.73 µM | 3.62 |
| Cn1cnc([N+](=O)[O-])c1S(=O)(=O)Oc1ccc(Cl)cc1 | 10.2 | 3.29 | 25.6 | 21.8 | > 100 | 39.1 | 58 | 42.5 | 2.99 µM | 1.69 | 8.88 | 8.59 µM | 25.2 | 15.6 | 18.6 µM | 17 |
| O=C(Nc1ccc(Cl)c(C(F)(F)F)c1)Nc1ccc(-c2cccnc2)cc1N1CCC(CO)CC1 | > 100 | 27.2 | 9.55 | 6.9 | 5.15 | > 100 | 9.79 | 4.42 | 3.3 µM | 2.76 | 2.78 | 2.53 µM | 2.11 | 2.96 | 2.68 µM | 1.26 |
| CC(C)(C)c1cc(C[P+](c2ccccc2)(c2ccccc2)c2ccccc2)cc(C(C)(C)C)c1O | 4.64 | 12 | 8.21 | 10.2 | 6.79 | 14.3 | 18.3 | 3.69 | 0.341 µM | 0.528 | 0.365 | 0.275 µM | 0.547 | 2.5 | 1.45 µM | 0.451 |
| COc1ccc(C2c3ccc4ccccc4c3Oc3ncn(CCCn4ccnc4)c(=N)c32)cc1OC (stereo not drawn) | 4.54 | 9.24 | 22.4 | 11 | 19.9 | 17.8 | 27.1 | 4.59 | 2.07 µM | 2.73 | 6.49 | 3.02 µM | 4.35 | 4.55 | 9.16 µM | 1.5 |
| COc1ccc2c(n1)Sc1nc3ccccc3nc1N2 | > 100 | > 100 | > 100 | > 100 | > 100 | > 100 | 34 | > 100 |  |  |  |  |  |  |  |  |
| COC(=O)[C@H](Cc1cn(C)cn1)NC(=O)[C@H](CC(C)C)NC(=O)Nc1cc(C(F)(F)F)cc(C(F)(F)F)c1 | > 10 | > 10 | > 10 | 4.14 | > 10 | > 10 | > 10 | > 10 | 6.41 µM | 5.28 | > 10 | 2.14 µM | > 10 | > 10 | > 10 µM | > 10 |
| CCCCCCCCCCCCCCCCn1cc[n+](C)c1 | 1.13 | 1.78 | 1.87 | 1.22 | 1.43 | 1.64 |  | 0.76 | 0.131 µM | 0.468 | 0.287 | 0.267 µM | 0.318 | 0.329 |  | 0.109 |

| Compound | TGI (K-562 leukemia) [µM] | TGI (SW-620 colon) [µM] | TGI (NCI-H23 lung) [µM] | TGI (HCT-116 colon) [µM] | TGI (SF-295 CNS) [µM] | TGI (OVCAR-5 ovarian) [µM] | TGI (NCI-H226 lung) [µM] | TGI (A498 renal) [µM] | GI50 (K-562 leukemia) | GI50 (SW-620 colon) [µM] | GI50 (NCI-H23 lung) [µM] | GI50 (HCT-116 colon) | GI50 (SF-295 CNS) [µM] | GI50 (OVCAR-5 ovarian) [µM] | GI50 (NCI-H226 lung) | GI50 (A498 renal) [µM] |
| --- | --- | --- | --- | --- | --- | --- | --- | --- | --- | --- | --- | --- | --- | --- | --- | --- |
| COc1cc2c3c(n(CCCN=[N+]=[N-])c(=O)c2cc1OC)-c1ccc(F)cc1C3=O | > 100 | > 100 | > 100 | > 100 | 7.97 | > 100 | > 100 | > 100 | 19.3 µM | 6.29 | 14.1 | 4.2 µM | 2.62 | > 100 | 43.2 µM | 39.6 |
| CC(=O)OCC1OC(SC2=N/C(=C\c3ccc(Br)s3)C(=O)N2c2ccccc2)C(OC(C)=O)C(OC(C)=O)C1OC(C)=O (stereo not drawn) | > 100 | > 100 | > 100 | > 100 | > 100 | > 100 | > 100 | > 100 | > 100 µM and 18.9 µM |  |  | 25.5 µM and 61.2 µM |  |  | 46.9 µM and 15.7 µM |  |
| Oc1ccc(N=Nc2ccc(Br)cc2)c(O)c1 | 3.75 | > 100 | 26.9 | 14.1 | 11.5 | 75.5 | 42.9 | 20.7 | 1.31 µM | 3.64 | 3.22 | 3.25 µM | 2.64 | 5.75 | 7.91 µM | 3.26 |
| OCC1OC(N2C=C(c3nc4ccccc4s3)C3C=CC=CC32)C(O)C(O)C1O (stereo not drawn) | > 50 | > 50 | > 50 | 42.4 | 37.9 | > 50 | > 50 | 38.3 | 19 µM | 21 | 15.6 | 11.5 µM | 13.4 | 16.5 | 14.5 µM | 16 |
| CC(C)[C@@]12C[C@@H](OC(=O)C3CO3)[C@@](C)(O1)[C@@H]1CC[C@@H](C)[C@H]1[C@@H]2OC(=O)/C=C/c1ccccc1 (stereo partly drawn) | > 100 | 39.3 | 53.8 | > 100 | 32.2 | 47.9 | 29.3 | 4.91 | 33.2 µM | 18.5 | 17.8 | 23.8 µM | 16.9 | 19.3 | 13.5 µM | 2.05 |
| O=C(Nc1ccc(I)cc1F)c1cc(Br)ccc1O | > 100 | 9.47 | 3.34 | 1.96 | 3.39 | > 100 | 4.41 | 0.63 | 0.431 µM | 0.849 | 0.472 | 0.411 µM | 1.73 | 4.01 | 1.28 µM | 0.175 |
| COc1ccc(Nc2ncc(I)c(NCCCNC(=O)C3CCC3)n2)cc1 | > 100 | > 100 | 46.9 | 20.6 | > 100 | 68.5 | 67.1 | 21.7 | 8.99 µM | 9.28 | 5.26 | 4.01 µM | 3.5 | 8.28 | 3.91 µM | 7.25 |
| COc1cc(CSc2nc3ccc(Cl)cc3c(=O)n2Cc2ccccc2)cc(OC)c1OC | > 100 | > 100 | > 100 | > 100 |  | > 100 | > 100 | 8.2 | 1.19 µM | 2.65 | 8.48 | 3.72 µM |  | 7 | 12.3 µM | 1.89 |
| O=C1CN=C(c2ccc[nH]2)c2cc(Cl)ccc2N1 | > 100 | > 100 | > 100 | > 100 | > 100 | > 100 | > 100 | > 100 | 54 µM | > 100 | 18.6 | 13 µM | > 100 | > 100 | > 100 µM | > 100 |
| CCCCCCOC(=O)CC1=C(C)/C(=C/c2[nH]c(-c3ccc[nH]3)cc2OC)N=C1C |  | 1.35 | 1.75 | 1.05 | 0.466 | 2 | 1.06 | 1.33 |  | 0.0384 | 0.101 | 0.0311 µM | 0.12 | 0.371 | 0.137 µM | 0.321 |
| Cc1cccc2c(=O)c3c(sc12)c(NCCCNCCO)nc1ccccc13 |  | 2.99 | 3.13 | 3.03 | 3.18 | 3.02 | 3.33 | 2.83 |  | 1.43 | 1.66 | 1.51 µM | 1.72 | 1.6 | 1.6 µM | 1.3 |
| COc1ccc(C(=O)/C=C/c2cc(-c3ccc(OC)c(OC)c3)n[nH]2)cc1OC | > 100 | 5.41 | 5.7 |  | 5.05 | 5.24 | 4.23 | 3.2 | 0.619 µM | 1.5 | 2.25 |  | 1.6 | 1.76 | 1.66 µM | 1.27 |
| CN1CCc2ccccc2C1Cc1ccccc1NC(=O)c1sc2ccccc2c1Cl (stereo not drawn) | > 100 | > 100 | > 100 | > 100 | > 100 |  | > 100 | > 100 |  |  |  |  |  |  |  |  |
| COc1cc2c3c(n(CCCN=[N+]=[N-])c(=O)c2cc1OC)-c1ccc([N+](=O)[O-])cc1C3=O | > 100 | > 100 | > 100 | > 100 | > 100 | > 100 |  | > 100 | > 100 µM | 55.3 | 91.1 | > 100 µM | > 100 | > 100 |  | 96.7 |
| COc1ccc(O)c(/C=N\Nc2ccccc2)c1 | > 100 | 22.6 | 67.7 | > 100 |  | > 100 | > 100 | 91.6 |  |  |  |  |  |  |  |  |
| CCOC(=O)Cc1csc(NC(=O)C(OC(=O)c2ccc(Cl)cc2)c2ccccc2)n1 (stereo not drawn) | > 100 | > 100 |  | > 100 | 56.8 | > 100 | > 100 | > 100 | 27.1 µM | 48.4 |  | 29 µM | 24.6 | 38.5 | 54.4 µM | > 100 |
